Reference: patent publication US12448352B2, “Beta adrenergic agonist and methods of using the same” (Curasen Therapeutics, Inc., priority 2019, dated 2025)

Experiments:
[1] = Plasma protein binding, equilibrium dialysis (rat); format: in vitro ADME; details: 1 μM, 6 hours dialysis
Procedure: (§1) Preparation of 100 mM sodium phosphate and 150 mM NaCl buffer (PBS). A basic solution was prepared by dissolving 14.2 g/L Na2HPO4 and 8.77 g/L NaCl in deionized water and the solution could be stored at 4° C. for up to 7 days. An acidic solution was prepared by dissolving 12.0 g/L NaH2PO4 and 8.77 g/L NaCl in deionized water and the solution could be stored at 4° C. for up to 7 days. The basic solution was titrated with the acidic solution to pH 7.4 and store at 4° C. for up to 7 days. pH was checked on the day of experiment and was adjusted if outside specification of 7.4±0.1.
(§2) Thawing of the frozen plasma (stored at −80° C.). Frozen plasma was thawed immediately at room temperature. The plasma was centrifuged at 3,220 g for 10 minutes to remove clots and supernatant was collected into a fresh tube. The pH of the plasma was checked and recorded. Note: a). Only use plasma that has been thawed no more than twice since arrival. b). Only use plasma within the range of pH 7 to pH 8.
(§3) Preparation of working solutions. The working solutions of test compound and control compound ketoconazole were prepared in DMSO at the concentration of 200 μM. And then 3 μL of working solutions was removed to mix with 597 μL of rat plasma to achieve a final concentration of 1 μM (0.5% DMSO). Plasma samples were vortexed thoroughly.
(§4) Preparation of dialysis membranes. […]

[2] = Plasma protein binding, equilibrium dialysis (human); format: in vitro ADME
Procedure: as §1, §2, §3, §4

[3] = Rat pharmacokinetic study (plasma); format: in vivo, male SD rats
Procedure: (§5) The rat pharmacokinetics studies of exemplary compounds 03-3, 03-5, and 03-115 were conducted with male SD rats. These rats were typically about 6-8 weeks old, weighing 200 g to 300 g. Animals were fasted overnight and free access to food 4 hours after dosing. A required volume of vehicle was added to reach the target concentration of the test article and vehicle component to prepare for the dosing. The dosing vehicle was PEG400 or 30% PEG400 in saline for IV, or 0.5% methylcellulose in water for PO. For IV dosing, the animals were administered intravenously via tail vein. For PO dosing, the animals were administered via oral gavage. After dosing, blood sample was collected (˜0.2 mL per time point) through jugular vein or heart puncture. Blood of each sample was transferred into plastic micro centrifuge tubes containing EDTA-K2. Collection tubes with blood samples and anticoagulant were inverted several times for proper mixing of the tube contents and then placed on wet ice. The blood samples were centrifuged at 2000 g for 5 minutes at 4° C. to obtain plasma which was stored in a freezer at −75±15° C. prior to analysis. Samples were analyzed using LC-MS/MS. WinNonlin were used for pharmacokinetic calculations.

[4] = Mouse pharmacokinetic study (plasma); format: in vivo, male C57BL/6J mice; details: PO 5 mg/kg
Procedure: as §5
Mouse pharmacokinetics studies of exemplar compounds 03-3 and 03-5 were conducted substantially similarly to the rat pharmacokinetic studies, instead using male C57BL/6J mice. These mice were typically about 6-8 weeks old, weighing 20 g to 30 g. Animals were free access to food before dosing. Sample amount was ˜0.03 mL per time point and sample site was dorsal metatarsal or heart puncture.

[5] = Dog pharmacokinetic study; format: in vivo, male Beagle dogs
Procedure: as §5
Dog pharmacokinetics studies of exemplary compounds 03-3, 03-5, and 03-115 were conducted substantially similarly to the rat pharmacokinetic studies, instead using male Beagle dogs. Animals for PO studies were food fasted overnight prior to dosing and were fed approximately 2 hours after dosing. Animals for IV studies had free access to food and water. Blood samples were collected through venipuncture of peripheral veins except the dosing vein.

[6] = Monkey pharmacokinetic study; format: in vivo, male Non-Naïve Cynomolgus Monkeys; details: PO 0.3 mg/kg
Procedure: as §5
Monkey pharmacokinetics studies of exemplary compounds 03-3, 03-5, and 03-115 were conducted substantially similarly to the rat pharmacokinetic studies, instead using male Non-Naïve Cynomolgus Monkeys. Animals for PO studies were food fasted overnight prior to dosing and were fed approximately 2 hours after dosing. Animals for IV studies had free access to food and water. Blood samples were collected through venipuncture of peripheral veins except the dosing vein.

## Cc1ncccc1[C@@H](O)CNC(C)(C)C [Compound 03-115]
[1]
  PPB (rat), Percent of Unbound Fractions: 97%
[2]
  PPB (human), Percent of Unbound Fractions: 100%
[3]; IV 1 mg/kg
  AUCInf: 164 ng·h/mL
  C0: 512 ng/mL
  T1/2: 0.36 h
  Vss_obs: 2.4 L/kg
[3]; PO 5 mg/kg
  AUCInf: 192 ng·h/mL
  Cmax: 174 ng/mL
  MRTInf_obs: 1.06 h
  T1/2: 1.61 h
  Tmax: 0.25 h
[4]
  AUCInf: 3018 ng·h/mL
  Cmax: 1751 ng/mL
  MRTInf_obs: 1.8 h
  Tmax: 0.5 h
[5]; PO 0.5 mg/kg
  AUCInf: 132 ng·h/mL
  Cmax: 72.3 ng/mL
  MRT: 1.82 h
  Tmax: 0.5 h
[5]; PO 1.5 mg/kg
  AUCInf: 537 ng·h/mL
  Cmax: 387 ng/mL
  MRT: 1.69 h
  Tmax: 0.33 h
[6]
  AUCInf: 261 ng·h/mL
  Cmax: 67 ng/mL
  MRTInf_obs: 3.46 h
  Tmax: 1.17 h
